Data as given in patent US20250275954A1, “USE OF KYNURENIC ACID RESISTING HYPERURICEMIA AND STRUCTURAL ANALOG THEREOF IN PREPARATION OF XOD INHIBITOR” (JIMEI UNIVERSITY, priority 2023, published 2025).
Entries after “also recorded” stand apart in the source; their conditions may differ.

What was measured:
XOD (xanthine oxidase) = XOD (xanthine oxidase) (Homo sapiens, UniProt P47989); test: In vitro XOD enzyme activity inhibition (xanthine substrate, uric acid measured at 290 nm); assay type: biochemical; conditions: for IC50: in vitro, inhibitor co-reacted with XOD 10 min, xanthine substrate, 290 nm, read-out: XOI IC50 (XOD inhibitory activity); for inhibition at 1000 µM: compound concentration 1 mM (FIG. 11), read-out: xanthine oxidase inhibitory activity at 1 mM
Sequence of XOD (xanthine oxidase) (P47989 whole entry, species assumed): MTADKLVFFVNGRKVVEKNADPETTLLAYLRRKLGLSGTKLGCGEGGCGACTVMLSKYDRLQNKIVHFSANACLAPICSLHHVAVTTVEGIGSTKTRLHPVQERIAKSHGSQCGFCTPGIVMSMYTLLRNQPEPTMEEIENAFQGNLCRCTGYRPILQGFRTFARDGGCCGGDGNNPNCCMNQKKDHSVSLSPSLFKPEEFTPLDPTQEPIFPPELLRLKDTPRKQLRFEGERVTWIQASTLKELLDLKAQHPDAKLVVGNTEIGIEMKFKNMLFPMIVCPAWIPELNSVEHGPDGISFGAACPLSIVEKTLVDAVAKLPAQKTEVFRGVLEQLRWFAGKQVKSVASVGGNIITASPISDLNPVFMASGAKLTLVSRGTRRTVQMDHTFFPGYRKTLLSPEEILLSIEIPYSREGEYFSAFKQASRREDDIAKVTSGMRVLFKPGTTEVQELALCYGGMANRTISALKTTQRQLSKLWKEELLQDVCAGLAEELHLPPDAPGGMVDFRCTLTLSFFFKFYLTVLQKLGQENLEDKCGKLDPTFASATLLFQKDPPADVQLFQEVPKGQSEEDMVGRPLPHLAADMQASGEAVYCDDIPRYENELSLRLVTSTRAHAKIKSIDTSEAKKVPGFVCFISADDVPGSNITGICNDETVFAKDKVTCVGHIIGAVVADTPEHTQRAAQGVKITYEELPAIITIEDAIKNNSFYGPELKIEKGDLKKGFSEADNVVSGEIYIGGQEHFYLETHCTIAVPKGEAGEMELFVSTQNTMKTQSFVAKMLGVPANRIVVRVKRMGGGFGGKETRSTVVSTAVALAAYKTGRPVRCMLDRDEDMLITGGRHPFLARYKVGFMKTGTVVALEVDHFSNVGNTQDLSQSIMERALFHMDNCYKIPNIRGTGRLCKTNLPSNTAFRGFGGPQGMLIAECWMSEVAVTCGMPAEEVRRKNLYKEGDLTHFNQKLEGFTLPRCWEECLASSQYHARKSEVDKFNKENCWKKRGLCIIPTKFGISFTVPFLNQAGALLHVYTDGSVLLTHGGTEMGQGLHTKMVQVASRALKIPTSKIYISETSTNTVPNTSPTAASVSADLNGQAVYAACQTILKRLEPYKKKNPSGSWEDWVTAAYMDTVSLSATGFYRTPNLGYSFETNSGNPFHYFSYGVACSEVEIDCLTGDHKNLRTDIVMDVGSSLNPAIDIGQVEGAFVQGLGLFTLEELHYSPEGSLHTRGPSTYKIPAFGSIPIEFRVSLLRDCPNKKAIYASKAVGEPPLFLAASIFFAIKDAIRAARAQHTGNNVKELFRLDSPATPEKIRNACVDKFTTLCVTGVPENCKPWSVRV
Method: The inhibitory effect of quinoline structural analogs on XOD was evaluated by co-reacting an inhibitor with XOD for 10 min, adding a certain concentration of a reaction substrate xanthine, and measuring the amount of uric acid produced at 290 nm.

hyperuricemic mice [1] = test: Serum uric acid in hyperuricemic mice (UA test kit); assay type: in vivo, Kunming mice; conditions: for serum uric acid level: hyperuricemic mice, day 21, vs model group (p<0.01), KA 7, 35, 70 mM/kg/day, allopurinol 35 mM/kg/day, gavage
Method: (§1) The normal control group received daily gavage of an equal amount of CMC-Na solution and injection of an equal amount of saline, and the remaining groups received daily gavage of 500 mg/kg hypoxanthine (HX) and intraperitoneal injection of 300 mg/kg potassium oxazinate (PO). […] Oral gavage was continued for 21 days. Data were analyzed for correlation and significance by using SPSS 23.0 software, and differences between the groups were compared by using one-way ANOVA, *p<0.05 indicates a significant difference, **p<0.01 indicates a very significant difference, and the data were expressed as X±SD.
At the end of the experiment on day 21, the mice in each group of Example 1 were subjected to blood collection from eyeballs of living bodies after being fasted for solids and liquids for 12 h. After sufficient blood samples were collected, they were allowed to stand at room temperature for 30 min and then centrifuged (3500 rpm, 10 min). A supernatant was taken and stored at −20° C. for standby application.
Serum uric acid levels in target mice were detected by using a uric acid (UA) test kit. The serum uric acid level is an important evaluation index of drug improvement in hyperuricemia.

hyperuricemic mice [2] = test: Hepatic uric acid in hyperuricemic mice; assay type: in vivo, Kunming mice; conditions: liver homogenate, day 21 (p<0.01); KA 7, 35, 70 mM/kg/day; allopurinol 35 mM/kg/day
Source text: as §1, with “36 SPF-grade male Kunming mice with relatively consistent posture and good health were randomly divided into a normal control group, a model group, a positive control group, a kynurenic acid low dose group (KA-L), a kynurenic acid medium dose group (KA-M) and a kynurenic acid high dose group (KA-H), with six experimental mice in each group. The” for “The”
Serum uric acid levels in target mice were detected by using a uric acid (UA) test kit. […]
On day 21, the mice in each group of Example 1 were quickly sacrificed by cervical dislocation after being fasted for solids and liquids for 12 h and livers were collected for weighing and subpackaging. […] Uric acid levels in the mouse liver homogenate samples were determined by using the method described in Example 2. […]

[3] = Body weight of hyperuricemic mice; assay type: in vivo, Kunming mice; conditions: hyperuricemic mice (HX + PO), daily gavage KA 7, 35 or 70 mM/kg, 21 days
Method: SPF-grade male Kunming mice (8 weeks old), 35±5 g, were purchased from Changzhou Cavens Laboratory Animal Co., Ltd. Animal quality was tested by Suzhou Xishan Biotechnology Co., Ltd.
Experimental mice were housed in a clean animal feeding room, and feeding and experimental operations were performed according to the standards of the Animal Experimental Center, and the animal feeding room and an operating workbench were cleaned and disinfected daily. All experimental mice were housed in a comfortable environment (temperature: 25±2° C., humidity: 40%-70%, 12 hours of day and night cycle) with good ventilation and daily supplementation of feed and drinking water.
36 SPF-grade male Kunming mice with relatively consistent posture and good health were randomly divided into a normal control group, a model group, a positive control group, a kynurenic acid low dose group (KA-L), a kynurenic acid medium dose group (KA-M) and a kynurenic acid high dose group (KA-H), with six experimental mice in each group. […] Data were analyzed for correlation and significance by using SPSS 23.0 software, and differences between the groups were compared by using one-way ANOVA, *p<0.05 indicates a significant difference, **p<0.01 indicates a very significant difference, and the data were expressed as X±SD. […]

XOD [4] = molecular target: T1, XOD (Mus musculus, UniProt Q00519); test: Serum XOD enzyme activity in hyperuricemic mice (colorimetric kit); assay type: in vivo, Kunming mice; conditions: day 21, vs model group (p<0.01), KA 7, 35, 70 mM/kg/day, allopurinol 35 mM/kg/day
T1 construct: from tissue; host or cells: liver homogenate of male Kunming mice (hyperuricemia model)
T1 sequence (Q00519 whole entry): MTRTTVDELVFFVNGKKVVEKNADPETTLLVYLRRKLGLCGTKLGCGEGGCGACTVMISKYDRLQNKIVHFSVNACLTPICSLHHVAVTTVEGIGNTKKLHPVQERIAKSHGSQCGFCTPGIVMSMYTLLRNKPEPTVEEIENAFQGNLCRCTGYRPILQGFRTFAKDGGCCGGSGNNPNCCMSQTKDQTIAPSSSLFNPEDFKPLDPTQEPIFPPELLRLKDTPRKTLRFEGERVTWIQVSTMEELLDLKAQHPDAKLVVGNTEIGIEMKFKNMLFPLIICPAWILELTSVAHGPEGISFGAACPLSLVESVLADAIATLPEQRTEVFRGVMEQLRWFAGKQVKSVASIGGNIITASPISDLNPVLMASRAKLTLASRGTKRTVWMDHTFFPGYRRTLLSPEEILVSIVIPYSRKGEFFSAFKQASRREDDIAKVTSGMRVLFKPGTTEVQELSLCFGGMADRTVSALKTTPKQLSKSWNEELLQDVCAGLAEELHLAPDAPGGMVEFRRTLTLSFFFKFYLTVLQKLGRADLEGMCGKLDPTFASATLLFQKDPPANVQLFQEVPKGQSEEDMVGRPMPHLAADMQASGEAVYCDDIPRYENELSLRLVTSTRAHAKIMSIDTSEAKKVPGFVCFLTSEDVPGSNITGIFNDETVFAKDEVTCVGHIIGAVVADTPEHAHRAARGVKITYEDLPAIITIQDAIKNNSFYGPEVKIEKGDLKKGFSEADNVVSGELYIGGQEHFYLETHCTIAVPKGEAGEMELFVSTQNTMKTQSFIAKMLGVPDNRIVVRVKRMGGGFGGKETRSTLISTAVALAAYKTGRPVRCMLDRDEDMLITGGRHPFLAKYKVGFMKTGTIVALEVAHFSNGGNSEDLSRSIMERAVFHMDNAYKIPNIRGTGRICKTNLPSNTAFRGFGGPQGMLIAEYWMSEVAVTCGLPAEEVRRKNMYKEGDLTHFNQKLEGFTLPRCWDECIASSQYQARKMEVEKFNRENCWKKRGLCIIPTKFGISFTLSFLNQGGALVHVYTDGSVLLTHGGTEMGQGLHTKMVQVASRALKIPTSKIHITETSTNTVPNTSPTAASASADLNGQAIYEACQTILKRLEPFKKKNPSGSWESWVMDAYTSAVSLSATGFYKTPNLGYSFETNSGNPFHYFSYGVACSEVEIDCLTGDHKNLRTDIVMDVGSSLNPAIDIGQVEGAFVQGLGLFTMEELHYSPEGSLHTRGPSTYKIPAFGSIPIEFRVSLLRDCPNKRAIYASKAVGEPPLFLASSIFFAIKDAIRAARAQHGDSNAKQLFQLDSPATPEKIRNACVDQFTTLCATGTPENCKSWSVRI
Method: as §1
After sufficient blood samples were collected, they were allowed to stand at room temperature for 30 min and then centrifuged (3500 rpm, 10 min). A supernatant was taken and stored at −20° C. for standby application.

hyperuricemic mice [5] = test: Serum creatinine (CRE) in hyperuricemic mice; assay type: in vivo, Kunming mice; conditions: day 21, vs model group (p<0.01), KA 7, 35, 70 mM/kg/day
Source text: (§2) 36 SPF-grade male Kunming mice with relatively consistent posture and good health were randomly divided into a normal control group, a model group, a positive control group, a kynurenic acid low dose group (KA-L), a kynurenic acid medium dose group (KA-M) and a kynurenic acid high dose group (KA-H), with six experimental mice in each group. The normal control group received daily gavage of an equal amount of CMC-Na solution and injection of an equal amount of saline, and the remaining groups received daily gavage of 500 mg/kg hypoxanthine (HX) and intraperitoneal injection of 300 mg/kg potassium oxazinate (PO). […] Oral gavage was continued for 21 days. Data were analyzed for correlation and significance by using SPSS 23.0 software, and differences between the groups were compared by using one-way ANOVA, *p<0.05 indicates a significant difference, **p<0.01 indicates a very significant difference, and the data were expressed as X±SD. […]
Serum samples of Example 2 were taken and the CRE content of the mouse serum samples was measured by using a creatinine (CRE) assay kit (sarcosine oxidation), and experimental operations and data calculation were performed in strict accordance with the kit instructions.

hyperuricemic mice [6] = test: Blood urea nitrogen (BUN) in hyperuricemic mice; assay type: in vivo, Kunming mice
Source text: as §2
Serum samples of Example 2 were taken and the blood urea nitrogen (BUN) content in the mouse serum samples was measured by using a blood urea nitrogen (BUN) assay kit (a urease method), and experimental operations and data calculation were performed in strict accordance with the kit instructions.

XOD [7] = molecular target: T1, XOD; test: Hepatic XOD enzyme activity in hyperuricemic mice; assay type: in vivo, Kunming mice; conditions: liver homogenate, day 21, vs model group (p<0.01); KA 7, 35, 70 mM/kg/day
Source text: (§3) 36 SPF-grade male Kunming mice with relatively consistent posture and good health were randomly divided into a normal control group, a model group, a positive control group, a kynurenic acid low dose group (KA-L), a kynurenic acid medium dose group (KA-M) and a kynurenic acid high dose group (KA-H), with six experimental mice in each group. The normal control group received daily gavage of an equal amount of CMC-Na solution and injection of an equal amount of saline, and the remaining groups received daily gavage of 500 mg/kg hypoxanthine (HX) and intraperitoneal injection of 300 mg/kg potassium oxazinate (PO). […] Oral gavage was continued for 21 days. Data were analyzed for correlation and significance by using SPSS 23.0 software, and differences between the groups were compared by using one-way ANOVA, *p<0.05 indicates a significant difference, **p<0.01 indicates a very significant difference, and the data were expressed as X±SD.
Serum samples of Example 2 were taken, and the XOD enzyme activity levels in the mouse serum samples were determined by using a xanthine oxidase (XOD) assay kit (a colorimetric method), and experimental operations and data calculation were performed in strict accordance with the kit instructions. […]

[8] = tested on: adenosine deaminase (ADA); test: Serum adenosine deaminase activity (ADA) in hyperuricemic mice (peroxidase method kit); assay type: in vivo, Kunming mice
Source text: as §3
At the end of the experiment on day 21, the mice in each group of Example 1 were subjected to blood collection from eyeballs of living bodies after being fasted for solids and liquids for 12 h. […]
Serum samples of Example 2 were taken, and ADA enzyme activity levels in the mouse serum samples were determined by using an adenosine deaminase activity (ADA) assay kit (a peroxidase method).

[9] = hyperuricemic mice, day 21, vs model group (p<0.01), KA 7, 35, 70 mM/kg/day

| Structure (SMILES) | IC50 (XOD (xanthine oxidase)) [µM] | inhibition at 1000 µM (XOD (xanthine oxidase)) [%] | serum uric acid level (hyperuricemic mice [1]) | hepatic uric acid level (hyperuricemic mice [2]) | also measured |
| --- | --- | --- | --- | --- | --- |
| O=C(O)c1nc2ccccc2cc1O [Compound 13, 3-Hydroxyquinoline-2-carboxylic acid] | 970 ± 50 | > 50 |  |  |  |
| Oc1ncnc2[nH]ncc12 [allopurinol, reference compound] |  |  | significantly inhibited the increase | significantly reduced | xanthine oxidase inhibitory activity at various concentrations (XOD (xanthine oxidase); FIG. 10A to 10R): concentration-dependent |
| O=C(O)c1cnc2ccc(O)cc2c1 [Compound 5, 6-Hydroxyquinoline-3-carboxylic acid] | 500 ± 130 | > 50 |  |  |  |

The next lines start with results.

| IC50 (XOD (xanthine oxidase)) [µM] | inhibition at 1000 µM (XOD (xanthine oxidase)) [%] | Structure (SMILES) | serum uric acid level (hyperuricemic mice [1]) | hepatic uric acid level (hyperuricemic mice [2]) | also measured |
| --- | --- | --- | --- | --- | --- |
| 1610 ± 70 |  | O=C(O)c1cc(O)nc2ccccc12 [Compound 11, 2-Hydroxyquinoline-4-carboxylic acid] |  |  |  |
| 5650 ± 100 |  | CCOC(=O)c1cc(O)c2ccccc2n1 [Compound 7, Ethyl 4-hydroxyquinoline-2-carboxylate] |  |  |  |
| 1990 ± 260 |  | O=C(O)c1cc(O)c2ccccc2n1 [KA, Kynurenic acid] | significantly reduce | reduce hepatic UA levels in a concentration-dependent manner; also recorded: reduce hepatic uric acid levels in a concentration-dependent manner; also recorded: gradient decline | growth status and body weight [3]: no significant effect; also recorded: no significant impact; also recorded: did not affect; serum uric acid level, comparison among KA doses (hyperuricemic mice [1]; KA-H, 70 mM/kg/day, day 21): most pronounced; serum XOD enzyme activity (XOD [4]): reduce serum XOD enzyme activity in hyperuricemic mice to varying degrees; serum creatinine (CRE) level (hyperuricemic mice [5]): significantly reduces; also recorded: significantly decrease; BUN level compared with the positive control group (hyperuricemic mice [6]; KA-M and KA-H (35 and 70 mM/kg/day) vs allopurinol 35 mM/kg/day (p<0.01)): reduce BUN levels in the mice more significantly; blood urea nitrogen (BUN) level (hyperuricemic mice [6]; [9]): significantly reduces; also recorded: significantly decrease; hepatic XOD enzyme activity (XOD [7]): effectively inhibit; also recorded: decreased significantly; serum ADA enzyme activity, comparison among KA doses ([8]; KA-H, 70 mM/kg/day, day 21): the most significant; serum ADA enzyme activity [8, 9]: effectively reduce; also recorded: significantly reduced |
